Experimental data reported in paper PMC11856932, “Aeromonas hydrophila CobQ is a new type of NAD^+- and Zn^2+-independent protein lysine deacetylase” (eLife, 2025).

What was measured:
Format in all cases: biochemical
[1] = biological target: T1, AhCobB (Aeromonas hydrophila, UniProt A0KKN9); assay: deacetylation of Kac-BSA, anti-Kac western blot; conditions: 0.25 mM NAD+ as co-substrate; 150 mM Tris-HCl pH 8.0, 10% glycerol, 37 °C, 3 h
T1 construct: gene cobB; recombinant, pET-21b/32a vector, E. coli BL21(DE3), Ni-NTA purified
T1 sequence (A0KKN9 1-257): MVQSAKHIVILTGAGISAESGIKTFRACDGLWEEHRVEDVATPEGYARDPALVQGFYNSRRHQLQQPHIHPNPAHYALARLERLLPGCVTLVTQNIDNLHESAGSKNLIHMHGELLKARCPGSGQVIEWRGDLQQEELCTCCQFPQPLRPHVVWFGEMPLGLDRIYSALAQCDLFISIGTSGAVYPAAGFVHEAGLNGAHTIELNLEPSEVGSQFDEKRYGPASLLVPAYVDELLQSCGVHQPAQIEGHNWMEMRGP

[2] = biological target: T1, AhCobB; assay: deacetylation of Kac-BSA, anti-Kac western blot; conditions: 0.5 mM NAM; 150 mM Tris-HCl pH 8.0, 10% glycerol, 37 °C, 3 h; inhibitor
[3] = biological target: T2, ICD (Aeromonas hydrophila, UniProt A0KI74); assay: NADPH formation, absorbance at […] nm; conditions: 0.5 mM NADP, 1.5 mM isocitrate, 3 mM MgCl2, 100 mM Tris-HCl pH 8.0, 10% glycerol
T2 construct: recombinant, pET-21b vector, E. coli BL21(DE3), Ni-NTA purified; non-acetylated form
T2 sequence (A0KI74 1-417): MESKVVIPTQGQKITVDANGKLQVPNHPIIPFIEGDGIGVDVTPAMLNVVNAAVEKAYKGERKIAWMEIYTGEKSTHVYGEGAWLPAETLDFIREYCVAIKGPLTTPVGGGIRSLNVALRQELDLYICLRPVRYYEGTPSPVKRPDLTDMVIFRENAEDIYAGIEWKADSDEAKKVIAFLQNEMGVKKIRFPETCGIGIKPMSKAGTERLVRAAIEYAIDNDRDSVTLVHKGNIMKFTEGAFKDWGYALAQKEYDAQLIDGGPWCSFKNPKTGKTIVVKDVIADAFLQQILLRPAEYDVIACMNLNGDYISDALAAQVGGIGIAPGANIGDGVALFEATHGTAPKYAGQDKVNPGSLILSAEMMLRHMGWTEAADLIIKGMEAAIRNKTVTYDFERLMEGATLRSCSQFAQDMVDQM

Q: How did the “deacetylation of Kac-BSA, anti-Kac western blot” value [1] turn out when `NC(=O)c1ccc[n+]([C@@H]2O[C@H](COP(=O)(O)OP(=O)(O)OC[C@H]3O[C@@H](n4cnc5c(N)ncnc54)[C@H](O)[C@@H]3O)[C@@H](O)[C@H]2O)c1` [NAD^+] was run?
A: Its value is “AhCobB and AhAcuC significantly deacetylated Kac-BSA in the presence of NAD^+ or Zn2 ^+ buffer”.

Q: With `NC(=O)c1cccnc1` [nicotinamide] as the compound, how does the inhibition [2] read?
A: Its inhibition is “the KDAC activity of AhCobB was inhibited when the sirtuin inhibitor nicotinamide (NAM) was added”.

Q: With `NC(=O)c1ccc[n+]([C@@H]2O[C@H](COP(=O)(O)OP(=O)(O)OC[C@H]3O[C@@H](n4cnc5c(N)ncnc54)[C@H](OP(=O)(O)O)[C@@H]3O)[C@@H](O)[C@H]2O)c1` [NADP^+] as the compound, how does the “NADPH formation, absorbance at 340 nm” value [3] read?
A: Its value is “The enzymatic activity of ICD was detected by measuring the amount of NADPH generated”.
